From ChEMBL document CHEMBL4808177, “Use of Intramolecular 1,5-Sulfur-Oxygen and 1,5-Sulfur-Halogen Interactions in the Design of N-Methyl-5-aryl-N-(2,2,6,6-tetramethylpiperidin-4-yl)-1,3,4-thiadiazol-2-amine SMN2 Splicing Modulators” (J Med Chem, 2021)
In brackets after ≈: the same amount, converted by molar mass.

Columns and labels:
[1] = Modulation of SMN2 splicing in myoblast cell line derived from the SMNdelta7 mouse model assessed as increase in SMN level measured as fold activation treated for 24 hrs by ELISA; type: functional, Primary myoblast
[2] = Modulation of SMN2 splicing activity in myoblast cell line derived from the SMNdelta7 mouse model assessed as increase in SMN level treated for 24 hrs by ELISA relative to control; type: functional, Primary myoblast
[3] = Solubility of the compound at pH 6.8 by high-throughput miniaturized shake flask solubility assay; type: physicochemical; conditions: buffer
[4] = Apparent permeability from basolateral to apical side in MDCK-MDR1 cells; type: ADME, cell-based, Canis lupus familiaris; conditions: dog
[5] = Intrinsic clearance in mouse liver microsomes; type: ADME, Microsome; conditions: read-out: CLH
[6] = Apparent permeability from apical to basolateral side in MDCK-MDR1 cells; type: ADME, cell-based, Canis lupus familiaris; conditions: dog
[7] = Intrinsic clearance in rat liver microsomes; type: ADME, Microsome; conditions: read-out: CLH
[8] = Apparent permeability across basolateral to apical side in human Caco-2 cells; type: ADME, cell-based
[9] = Clearance in Sprague-Dawley rat at 1 mg/kg, iv and 3 mg/kg, po measured up to 7 hrs by HPLC-MS/MS analysis; type: ADME, organism-based; conditions: in vivo
[10] = Cmax in Sprague-Dawley rat at 1 mg/kg, iv and 3 mg/kg, po measured up to 7 hrs by HPLC-MS/MS analysis; type: ADME, organism-based; set-up: dose 3 mg/kg, time <=7; conditions: in vivo
[11] = Volume of distribution at steady state in Sprague-Dawley rat at 1 mg/kg, iv and 3 mg/kg, po measured up to 7 hrs by HPLC-MS/MS analysis; type: ADME, organism-based; conditions: in vivo, read-out: Vdss
[12] = Apparent permeability across apical to basolateral side in human Caco-2 cells; type: ADME, cell-based
[13] = AUC (extrapolated) in Sprague-Dawley rat at 3 mg/kg, po measured up to 7 hrs by HPLC-MS/MS analysis; type: ADME, organism-based; set-up: route oral, dose 3 mg/kg, time <=7; conditions: in vivo
[14] = Half life in Sprague-Dawley rat at 1 mg/kg, iv and 3 mg/kg, po measured up to 7 hrs by HPLC-MS/MS analysis; type: ADME, organism-based; conditions: in vivo
[15] = Drug uptake in Sprague-Dawley rat brain at 3 mg/kg, po measured after 7 hrs by HPLC-MS/MS analysis; type: ADME, organism-based; conditions: read-out: Drug uptake
[16] = Drug uptake in SMN C/+ allele mouse plasma at 50 mg/kg, po measured after 4 hrs; type: ADME, organism-based
[17] = In vivo modulation of SMN2 splicing activity in SMN C/+ allele mouse model assessed as fold increase in full length SMN protein level in brain at 50 mg/kg, po once daily for 5 days relative to control; type: functional; conditions: time 5 day
[18] = Drug uptake in SMN C/+ allele mouse brain at 50 mg/kg, po measured after 4 hrs; type: ADME, organism-based; conditions: read-out: Drug uptake

SMILES	EC50 [1]	fold change (FC) [2]	solubility thermodynamic [3]	microsomal CLint [7]	further results
COc1cc(-c2ccn(C)c(=O)c2)ccc1-c1nnc(N(C)C2CC(C)(C)NC(C)(C)C2)s1	130 nM	3.2			
CN(c1nnc(-c2c(O)cc(-c3cn[nH]c3)c(F)c2F)s1)C1CC(C)(C)NC(C)(C)C1	3 nM	2.7	150 µM (≈ 67.3 µg/mL)		Papp B→A [4]: 23 ×10⁻⁶ cm/s; microsomal CLint [5]: 67 µL/min/mg; Papp A→B [6]: 8 ×10⁻⁶ cm/s
CN(c1nnc(-c2cc3ccccc3s2)s1)C1CC(C)(C)NC(C)(C)C1	4470 nM	1.7	> 1000 µM	< 3 µL/min/mg	
Cc1cc(-c2ccn(C)c(=O)c2)ccc1-c1nnc(N(C)C2CC(C)(C)NC(C)(C)C2)s1	1100 nM	2.6			
CN(c1nnc(-c2ccc(-c3cnn(C)c3)cc2O)s1)C1CC(C)(C)NC(C)(C)C1	32 nM	3.1			Papp B→A [8]: 2.5 ×10⁻⁶ cm/s; clearance [9]: 71 mL/min/kg; Cmax [10]: 50 nM; Vd [11]: 7 L/kg; Papp A→B [12]: 2.4 ×10⁻⁶ cm/s; AUC at 7 h [13]: 0.554 µM·h; half-life [14]: 120 min
CN(c1nnc(-c2ccc(-c3cnn(C)c3)cc2C(F)(F)F)s1)C1CC(C)(C)NC(C)(C)C1	> 30000 nM	1.3			
CN(c1nnc(-c2c(O)cc(-c3cn[nH]c3)cc2Cl)s1)C1CC(C)(C)NC(C)(C)C1	3 nM	2.5	220 µM (≈ 98.3 µg/mL)		microsomal CLint [5]: 116 µL/min/mg
CN(c1nnc(-c2ccc(-c3cnn(C)c3)cn2)s1)C1CC(C)(C)NC(C)(C)C1	680 nM	2.3			
CN(c1nnc(-c2cc(F)c(-c3cn[nH]c3)cc2F)s1)C1CC(C)(C)NC(C)(C)C1	20 nM	3.1	122 µM (≈ 52.8 µg/mL)	48 µL/min/mg	Papp B→A [4]: 16 ×10⁻⁶ cm/s; Papp A→B [6]: 3 ×10⁻⁶ cm/s; concentration at 7 h [15]: 141 nM
COc1cc(C#N)ccc1-c1nnc(N(C)C2CC(C)(C)NC(C)(C)C2)s1	1000 nM	2.2			
COc1cc(-c2cn[nH]c2)ccc1-c1nnc(N(C)C2CC(C)(C)NC(C)(C)C2)s1	38 nM	2.9			
CN(c1nnc(-c2cc(-n3cccn3)ccc2O)s1)C1CC(C)(C)NC(C)(C)C1	1000 nM	2.3			
CN(c1nnc(-c2ccc(-c3cn[nH]c3)cc2O)s1)C1CC(C)(C)NC(C)(C)C1	400 nM	2.5			
COc1cc(-n2cccn2)ccc1-c1nnc(N(C)C2CC(C)(C)NC(C)(C)C2)s1	62 nM	2.5			Papp B→A [8]: 6.9 ×10⁻⁶ cm/s; clearance [9]: 72 mL/min/kg; Cmax [10]: 221 nM; Vd [11]: 10.9 L/kg; Papp A→B [12]: 13.8 ×10⁻⁶ cm/s; AUC at 7 h [13]: 0.895 µM·h; half-life [14]: 114 min
CN(c1nnc(-c2sc3ccc(C#N)cc3c2Cl)s1)C1CC(C)(C)NC(C)(C)C1	92 nM	2.5	51 µM (≈ 22.7 µg/mL)	< 25 µL/min/mg	
CN(c1nnc(-c2ccc(-c3cn[nH]c3)c(F)c2F)s1)C1CC(C)(C)NC(C)(C)C1	33 nM	3	48 µM (≈ 20.8 µg/mL)	46 µL/min/mg	concentration at 4 h [16]: 3.6 µM; Papp B→A [4]: 8 ×10⁻⁶ cm/s; fold change (FC) [17]: 1.6; Papp A→B [6]: 3 ×10⁻⁶ cm/s; concentration at 7 h [15]: 498 nM; concentration at 4 h [18]: 2500 nM
CN(c1nnc(-c2cc(F)c(-c3cn[nH]c3)cc2Cl)s1)C1CC(C)(C)NC(C)(C)C1	48 nM	3.2	34 µM (≈ 15.3 µg/mL)	54 µL/min/mg	Papp B→A [4]: 23 ×10⁻⁶ cm/s; Papp A→B [6]: 4 ×10⁻⁶ cm/s; concentration at 7 h [15]: 185 nM
CN(c1nnc(-c2ccc(-n3cccn3)cc2)s1)C1CC(C)(C)NC(C)(C)C1	1100 nM	2.8			
CN(c1ccc(-c2cc3ccccc3s2)nn1)C1CC(C)(C)NC(C)(C)C1			980 µM (≈ 373 µg/mL)	23 µL/min/mg	
CN(c1nnc(-c2ccc(-c3ccn(C)c(=O)c3)cc2OC(F)(F)F)s1)C1CC(C)(C)NC(C)(C)C1	900 nM	2.2			
COc1cc(-c2cnn(C)c2)ccc1-c1nnc(N(C)C2CC(C)(C)NC(C)(C)C2)s1	44 nM	2.5			
CN(c1nnc(-c2sc3ccccc3c2Cl)s1)C1CC(C)(C)NC(C)(C)C1	530 nM	2.8	240 µM (≈ 101 µg/mL)	20 µL/min/mg	
CN(c1nnc(-c2ccc(C#N)cc2O)s1)C1CC(C)(C)NC(C)(C)C1	8800 nM	1.9			
CN(c1nnc(-c2ccc(-c3cn[nH]c3)cc2Cl)s1)C1CC(C)(C)NC(C)(C)C1	34 nM	2.5	44000 µM (≈ 19000 µg/mL)	24 µL/min/mg	Papp B→A [4]: 12 ×10⁻⁶ cm/s; Papp A→B [6]: 3 ×10⁻⁶ cm/s; concentration at 7 h [15]: 240 nM
CN(c1nnc(-c2ccc(-c3cn[nH]c3)cc2F)s1)C1CC(C)(C)NC(C)(C)C1	43 nM	3.1	> 1000 µM	59 µL/min/mg	Papp B→A [4]: 15 ×10⁻⁶ cm/s; Papp A→B [6]: 4 ×10⁻⁶ cm/s; concentration at 7 h [15]: 66 nM
CN(c1nnc(-c2c(O)cc(-c3cn[nH]c3)cc2F)s1)C1CC(C)(C)NC(C)(C)C1	6 nM	2.6			solubility [3]: Insoluble; Papp B→A [4]: 41 ×10⁻⁶ cm/s; microsomal CLint [5]: 50 µL/min/mg; Papp A→B [6]: 10 ×10⁻⁶ cm/s
CN(c1nnc(-c2cc3cc(C#N)ccc3s2)s1)C1CC(C)(C)NC(C)(C)C1	540 nM	2.7	170 µM (≈ 70 µg/mL)	12 µL/min/mg	
CN(c1nnc(-c2ccc(-n3cccn3)cc2O)s1)C1CC(C)(C)NC(C)(C)C1	170 nM	2.8			
CN(c1nnc(-c2ccc(-c3ccn(C)c(=O)c3)cc2O)s1)C1CC(C)(C)NC(C)(C)C1	61 nM	3.4			Papp B→A [8]: 6.8 ×10⁻⁶ cm/s; clearance [9]: 163 mL/min/kg; Cmax [10]: 38 nM; Vd [11]: 10.7 L/kg; Papp A→B [12]: 3.7 ×10⁻⁶ cm/s; AUC at 7 h [13]: 0.227 µM·h; half-life [14]: 78 min
